# Measurements as given in paper PMC7576278, “IKKε and TBK1 in diffuse large B‐cell lymphoma: A possible mechanism of action of an IKKε/TBK1 inhibitor to repress NF‐κB and IL‐10 signalling” (Journal of Cellular and Molecular Medicine, 2020).
# Assays:
# TBK1 = biological target: T1, TBK1 (Homo sapiens, UniProt Q9UHD2); test: purified enzyme inhibition (pIC50; assay details not given); type: biochemical
# T1 sequence (Q9UHD2 1-729): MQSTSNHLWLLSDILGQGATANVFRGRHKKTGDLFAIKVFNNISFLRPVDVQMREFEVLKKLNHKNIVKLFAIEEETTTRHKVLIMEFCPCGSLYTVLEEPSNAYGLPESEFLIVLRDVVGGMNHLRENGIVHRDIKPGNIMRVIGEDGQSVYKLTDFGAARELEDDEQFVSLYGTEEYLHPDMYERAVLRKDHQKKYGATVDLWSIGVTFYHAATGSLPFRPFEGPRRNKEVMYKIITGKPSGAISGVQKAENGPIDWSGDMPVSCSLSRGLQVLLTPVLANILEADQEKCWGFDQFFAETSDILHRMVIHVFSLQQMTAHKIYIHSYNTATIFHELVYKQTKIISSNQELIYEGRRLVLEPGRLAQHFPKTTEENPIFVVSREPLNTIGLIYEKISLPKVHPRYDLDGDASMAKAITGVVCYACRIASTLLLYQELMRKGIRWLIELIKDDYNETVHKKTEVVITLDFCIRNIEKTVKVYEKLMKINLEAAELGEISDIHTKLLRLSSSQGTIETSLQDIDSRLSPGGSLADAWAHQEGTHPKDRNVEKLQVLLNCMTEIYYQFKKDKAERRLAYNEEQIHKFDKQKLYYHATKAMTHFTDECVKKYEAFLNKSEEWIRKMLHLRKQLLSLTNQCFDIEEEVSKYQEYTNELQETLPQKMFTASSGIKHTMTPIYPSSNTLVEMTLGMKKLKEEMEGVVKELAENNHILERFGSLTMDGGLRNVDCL
# IKKε = biological target: T2, IKKε (Homo sapiens, UniProt Q14164); test: as above; type: biochemical
# T2 construct: gene IKBKE
# T2 sequence (Q14164 1-716): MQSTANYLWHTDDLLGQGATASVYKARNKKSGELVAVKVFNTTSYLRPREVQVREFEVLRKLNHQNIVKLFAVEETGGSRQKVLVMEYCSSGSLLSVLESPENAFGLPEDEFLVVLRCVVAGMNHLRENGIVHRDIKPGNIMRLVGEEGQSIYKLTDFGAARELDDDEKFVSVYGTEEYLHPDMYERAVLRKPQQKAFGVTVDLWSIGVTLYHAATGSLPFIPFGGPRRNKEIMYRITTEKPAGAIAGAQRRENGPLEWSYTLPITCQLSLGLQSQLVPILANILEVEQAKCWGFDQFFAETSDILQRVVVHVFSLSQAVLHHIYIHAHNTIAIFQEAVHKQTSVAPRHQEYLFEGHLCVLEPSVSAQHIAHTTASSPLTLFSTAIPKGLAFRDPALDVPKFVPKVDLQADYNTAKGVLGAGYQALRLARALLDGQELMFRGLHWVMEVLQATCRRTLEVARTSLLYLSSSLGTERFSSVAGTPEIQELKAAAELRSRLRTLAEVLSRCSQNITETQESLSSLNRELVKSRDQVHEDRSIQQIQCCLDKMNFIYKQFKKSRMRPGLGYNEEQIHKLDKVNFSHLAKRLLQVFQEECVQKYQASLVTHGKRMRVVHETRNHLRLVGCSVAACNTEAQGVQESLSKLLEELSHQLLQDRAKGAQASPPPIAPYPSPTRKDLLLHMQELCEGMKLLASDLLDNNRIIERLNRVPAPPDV
smiles,measurement,setting,value
N#Cc1cc(-c2ccnc(Nc3ccc(NC(=O)CN4CCOCC4)nc3)n2)cnc1N1CC[C@H](F)C1 [DMX3433],IC50,TBK1,12.6 nM
same,IC50,IKKε,15.8 nM
